How the values were obtained:
Type in all cases: cell-based, human
[1] = tested on: re-calcified citrated blood clotted with thrombin; assay: T2MR monitoring of fibrinolysis of thrombin-clotted blood; details: tPA added 30 minutes after 3 U/ml thrombin
Procedure: Blood clotting was initiated by addition of 2 μL of a 0.2 M CaCl2 solution and 2 μL of thrombin (Sigma-Aldrich, St. Louis, Mo., final concentration 0.1-3.0 U/ml) to 34 μL of blood in a 200 μL PCR tube (Eppendorf, Hauppauge, N.Y.). All components were pre-warmed for 1 min at 37° C. before mixing. Samples were mixed by three aspiration and dispersion cycles using a pipette, then put into the T2MR reader for measurement. Typical run length was 30 min with a 10 s sampling rate. For some experiments, data collection time was extended to 1 hr.
To establish T2MR signatures for fibrinolysis, tissue plasminogen activator (tPA, Alteplase, Genentech, South San Francisco, Calif.) was added to samples clotted by thrombin. Blood clotting was initiated as described above, and the sample was incubated for […] to allow for complete clot contraction. Then, 0.5-1 μM tPA was added to clotted and contracted samples. Care was taken not to disturb clots, which were usually attached to the tube wall. The pipette tip was carefully placed into the visible serum layer on the tube side opposite to the contracted clot, and 3 μL of tPA solution was added with a single dispensing of the pipettor. The tPA solutions were made from a stock solution prepared according to manufacturer instructions using 0.15 M sodium chloride, pH 7.4.
We measured the dependencies of the T2MR signals during clotting of re-calcified citrated blood samples from healthy donors initiated by adding 3 U/ml thrombin. Thrombin activates platelets and cleaves fibrinogen to form a three-dimensional fibrin network stabilized by factor XIIIa. Addition of thrombin led to rapid formation of a gelatinous meshwork that filled the sample volume accompanied by a small, rapid decrease in the T2MR signal over tens of seconds due to the sample transitioning from a liquid to gel state. […]
We then assessed the sensitivity of the T2MR platform to fibrinolysis by adding tissue-type plasminogen activator (tPA) to the clotted samples 30 minutes after thrombin.

citrated blood [2] = assay: Thromboelastography maximum amplitude (TEG MA) after calcium and kaolin activation; details: ex vivo addition at 4 or 8 μg/ml; samples from 3 healthy donors
Procedure: (§1) A 0.5 mg/ml solution of abciximab was prepared by diluting the stock 10 mg/5 ml solution by […] in saline. The abciximab-treated blood samples were incubated for at least 5 min prior to clotting. Clotting was initiated by adding 2 μL 0.2 M CaCl2 and 2 μL TEG kaolin to 34 μL of abciximab-treated blood sample. To compare the T2MR signal to TEG MA, a ΔT2 parameter was calculated by taking the difference in T2 between the upper and middle peaks at a time point 13 min after adding calcium and kaolin. The TEG MA values were measured on the same samples following manufacturer instructions.
(§2) For comparison between T2MR and TEG, calcium kaolin activation of citrated blood was used and normal donor samples were treated with various amounts of abciximab, an inhibitor of the platelet glycoprotein allbβ3 receptor that binds fibrin and is essential for clot contraction.

citrated blood [3] = assay: T2MR clot strength (ΔT2) after calcium and kaolin activation; details: ex vivo addition at 4 or 8 μg/ml; 13 minutes after activation; samples from 3 healthy donors
Procedure: as §1, §2

| Molecule | T2 value of the middle peak after tPA addition [1] | T2 value of the third peak after tPA addition (persisted) [1] | T2 value of the upper peak after tPA addition [1] | TEG MA (citrated blood [2]) | ΔT2 (difference between upper and middle T2 values in the T2MR signature) (citrated blood [3]) |
| --- | --- | --- | --- | --- | --- |
| Alteplase [tPA] | decreased from 250 to 175 | ~100 ms | decreased rapidly |  |  |
| abciximab (antibody, chains of the INN, looked up, V domains shown, Fab) VH: EVQLQQSGTVLARPGASVKMSCEASGYTFTNYWMHWVKQRPGQGLEWIGAIYPGNSDTSYIQKFKGKAKLTAVTSTTSVYMELSSLTNEDSAVYYCTLYDGYYVFAYWGQGTLVTVSA VL: EIVLTQSPVTLSVTPGDSVSLSCRASRDISNNLHWFQQTSHESPRLLIKYASQSMSGIPSRFSGSGSGTDFTLSINSVETEDFGMYFCQQTNSWPYTFGGGTKLEIK |  |  |  | less than 40 | < 100 ms |
